Laboratory results: the supplement of paper PMC11997997

How the values were obtained:
[1] = system: murine bone marrow-derived macrophages; assay: area under cytotoxicity dose-response curve (AUC (% cytotoxicity x dose, relative)); higher = more cytotoxic; conditions: duration: 6 days; dose range: 0.13-80 uM, 8 points
How it was run: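 Cytotoxicity is expressed as the area under the dose–response curve from GraphPad Prism version 10. To obtain it, primary murine bone marrow-derived macrophages were incubated for 6 days at 37 °C in 5% CO2 across final concentrations of 80–0.13 μM. Viability came from CellTiter-Glo luminescence, and percent cytotoxicity was normalised to vehicle and positive control wells.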

[2] = system: Mycobacterium tuberculosis CDC1551 (intracellular, in murine BMDM); assay: area under intracellular growth-inhibition dose-response curve (AUC (% inhibition x dose, relative)); higher = more potent; conditions: duration: 6 days; dose range: 0.13-80 uM, 8 points
How it was run: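 In 384-well opaque plates, primary murine bone marrow-derived macrophages were infected with luciferase-expressing M. tuberculosis CDC1551 (multiplicity of infection 1, 1 h) 24 h after seeding, then treated for 6 days across final concentrations of 80–0.13 μM. Growth was measured by Bright-Glo luciferin assay, normalised to a reference drug control and the lowest-concentration wells. The reported value is the area under the growth-inhibition dose–response curve from GraphPad Prism.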

SMILES | area under cytotoxicity dose-response curve [1] | area under intracellular growth-inhibition dose-response curve [2]
Cc1nn(-c2ccccc2)cc1/C=N/NC(N)=S | 24.4 | 274
O=C(NCC1CCCCC1)c1ccc(Br)o1 | < 0 | 274
CCCc1cc(C(=O)NC2CCCCC2)no1 | 108 | 232
Cc1ccc2nc(-c3ccc(NC(=S)NC(=O)C(C)C)cc3)sc2c1 | 32.6 | 174
OC(CCCC(O)c1ccccc1)c1ccccc1 (centres undefined) | 31.6 | 203
O=C(NN=Cc1ccc2c(c1)OCO2)c1ccncc1 | 65.5 | 238
CC1CCC(C(C)C)C(OC(=O)Cn2c(COc3ccccc3)[n+](C)c3ccccc32)C1.[Cl-] (centres undefined) | 39.3 | 201
Nc1nc(F)nc2c1ncn2[C@@H]1O[C@H](CO)[C@@H](O)[C@H]1O | 236 | < 0
O=C(COc1ccccc1)N1CCN(c2ccccc2)CC1 | 10 | 122
O=C(/C=C\c1cccs1)N1CCN(Cc2ccc3c(c2)OCO3)CC1 | 135 | 218
O=C(N/N=C/c1ccc(O)cc1)c1ccncc1 | 1.59 | 168
Cn1ncc2cc(NC(N)=S)ccc21 | < 0 | 196
NS(=O)(=O)c1cccc(NC(=O)COC(=O)c2ccc(S(=O)(=O)N3CCOCC3)cc2)c1 | 10 | 112
COc1ccc(/C=C/C(=O)c2ccc([N+](=O)[O-])o2)cc1 | 71.5 | 162
CC(C)[C@@H]1CC[C@@H](C)C[C@H]1OC(=O)C[n+]1cc(-c2ccc(Cl)cc2)n2c1CCCCC2.[Cl-] | 101 | 8.38
CC1CCC(NC(=O)c2cc3c(s2)CCCC3)CC1 (centres undefined) | < 0 | 253
C/C(Cn1cnc([N+](=O)[O-])n1)=N\NC(=O)c1ccncc1 | 39.4 | 249
Nc1ccc(C(=O)O)c(O)c1 | 62.3 | 182
CC1C/C(=C/c2ccncc2)C(=O)/C(=C/c2ccncc2)C1 (centres undefined) | 54.5 | < 0
O=C(Nc1ccc(C(=O)Oc2ccccc2)c(O)c1)c1ccccc1 | 93.1 | 210
COc1ccc(CN(C)C(=O)COC(=O)c2cc([N+](=O)[O-])ccc2N2CCCC2)c(OC)c1OC | 66.2 | 31

SMILES | area under cytotoxicity dose-response curve [1] | area under intracellular growth-inhibition dose-response curve [2]
C/C(CC(=O)Nc1cccc(F)c1)=N\NC(=O)c1ccncc1 | 9.96 | 272
C=CCN1/C(=C/c2ccc3cc(C)ccc3[n+]2CC)C=Cc2ccccc21.[Br-] | 86.8 | 102
CCC12CN3CCN(CC(C3)/C1=N/NC(=O)c1ccncc1)C2 | 13.3 | 206
Cc1ccc(C)c(NC(=N)Nc2nc(C)cc(C)n2)c1 | < 0 | 218
CC(NC(=O)c1cccs1)c1ccc(Cl)cc1 (centres undefined) | 2.59 | 251
CSc1ccc(C(=O)C2CCCN(C(=O)c3ccc4c(c3)no[n+]4[O-])C2)cc1 (centres undefined) | 64.7 | 191
O=C(COC(=O)c1ccccc1NCCO)NCC1CCCCC1 | 58.4 | 151
O=C(N/N=C/C=C/c1cccc([N+](=O)[O-])c1)c1ccncc1 | 17.5 | 111
CCC(CO)NCCNC(CC)CO (centres undefined) | 88.1 | 154
CC(=O)N1CCN(c2cc3c(cc2F)c(=O)c(C(=O)O)cn3C2CC2)CC1 | 6.41 | 228
CN(CC(=O)Nc1ccc(OC(F)(F)F)cc1)C(=O)/C=C/c1cc2c(cc1[N+](=O)[O-])OCO2 | < 0 | 135
C/C(=N\NC(N)=S)c1ccc2c(c1)OCCO2 | 25.3 | 196
COc1ccc(/C=N/NC(=O)c2ccncc2)cc1CN1CCN(c2ccc(F)cc2)CC1 | 3.26 | 228
Cc1sc(N/N=C/C=C/c2ccccc2)nc1-c1ccccc1 | 16.1 | 268
O=C(N/N=C/C=C\c1ccccc1[N+](=O)[O-])c1ccncc1 | 5.73 | 260
Cc1ccc2nc(C)cc(S)c2c1 | < 0 | 108
CC(NC(=O)c1ccccc1)c1ccc(F)cc1 (centres undefined) | < 0 | 265
O=C1CN(C(=O)COC(=O)c2c(F)cccc2Cl)c2ccccc2N1 | < 0 | 148
O=C(Nc1ccc(S(=O)(=O)Nc2nccs2)cc1)c1c(F)c(F)c(F)c(F)c1F | 64.8 | 82.5
O=C(CCN1C(=O)S/C(=C/c2ccccc2)C1=O)Nc1ccc(C(=O)O)c(O)c1 | 156 | 117
NC(=S)N/N=C/c1ccc(-c2ccc([N+](=O)[O-])cc2)o1 | < 0 | 217

SMILES | area under cytotoxicity dose-response curve [1] | area under intracellular growth-inhibition dose-response curve [2]
CCC(=O)N(C)CCc1cc2c(c(OC)c1/C=N/NC(=O)c1ccncc1)OCO2 | 48.4 | 127
O=C(CC1CC2CCC1C2)NCc1cccs1 (centres undefined) | 65.1 | 193
CCN1/C(=C/c2ccc3cc(C)ccc3[n+]2CC)Sc2ccccc21.[I-] | 176 | 144
Cc1ccc(-n2c(C)cc(/C=N/NC(=O)c3ccncc3)c2C)c(C)c1 | < 0 | 268
NC(=S)N/N=C1\CCOc2ccc(Cl)cc21 | 31.5 | 179
COc1cc(C(C)=NNC(=O)c2ccncc2)ccc1O | 47.1 | 265
CCN1C(=O)C(O)(C2COC(C)(C)CC2=O)c2ccccc21 (centres undefined) | 41 | 31.5
CC[C@H]1OC(=O)[C@H](C)[C@@H](O[C@H]2C[C@@](C)(OC)[C@@H](O)[C@H](C)O2)[C@H](C)[C@@H](O[C@@H]2O[C@H](C)C[C@H](N(C)C)[C@H]2O)[C@](C)(O)C[C@@H](C)C(=NOCOCCOC)[C@H](C)[C@@H](O)[C@]1(C)O | 7.74 | 204
CCn1nc(C(=O)Nc2cccc(S(=O)(=O)N3CCCC3)c2)c2ccccc2c1=O | 101 | 55.2
CCCCCCn1c(=O)c(C(=O)Nc2cnccn2)c(O)c2ccccc21 | < 0 | 56.4
Cc1nnc(SCC(=O)NNC(=O)COc2ccc(Br)cc2)n1C | 1.25 | 68.9
CCNc1nc(NCC)nc(N/N=C/c2ccc([N+](=O)[O-])o2)n1 | 18 | 266
CN1CCN2c3ccccc3Cc3ccccc3C2C1.Cl (centres undefined) | < 0 | 118
CCC(=O)N1NC(=C2C(=O)N(C)C(=O)N(C)C2=O)CC1c1ccccc1 (centres undefined) | 23.3 | 122
O=C(NC1CCCCCC1)c1cccs1 | < 0 | 243
O=C(COC(=O)C1CC2CCCC(C1)C2=O)Nc1ccc(F)c(Cl)c1 (centres undefined) | 44.5 | 90.3
Cc1ccc(/C(O)=C/c2nc3ccccc3oc2=O)cc1 | < 0 | 22.9
COc1ccc(NC(=O)C(C)NC2=NS(=O)(=O)c3ccccc32)cc1S(N)(=O)=O (centres undefined) | 8.48 | 63.2
O=C(CCCOc1ccccc1)NNC(=O)c1ccncc1 | < 0 | 263
Cc1c([N+](=O)[O-])cc(C(=O)NCc2ccc(F)cc2)cc1[N+](=O)[O-] | < 0 | 252
